Publication PMC11500415, “Chemical inhibition of stomatal differentiation by perturbation of the master-regulatory bHLH heterodimer via an ACT-Like domain” (Nature Communications, 2024)

How the values were obtained:
[1] = target: T1, MUTE_ACTL (Arabidopsis thaliana, UniProt Q9M8K6); assay: ITC direct binding; design: species or system A. thaliana; conditions: for binding to MUTE analyzed by ITC (in words): ITC (Supplementary Fig. 8, Supplementary Table 2)
T1 construct: MUTE-ACTL (114-202); made in house; host or cells: E. coli BL21
T1 sequence (Q9M8K6 114-202): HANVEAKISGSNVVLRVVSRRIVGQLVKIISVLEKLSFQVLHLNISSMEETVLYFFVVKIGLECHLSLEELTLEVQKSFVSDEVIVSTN
Description: A. thaliana SCRM (1-494), ΔNSPCH (98-364), MUTE (1-202), ΔNFAMA (190-414), MUTEΔC (1-114), MUTER133A_R134A, MUTEE162A_E163A, MUTER133A_R134A_E162A_E163A, SCRM-ACTL (405-494), MUTE-ACTL (114-202), SPCH-ACTL (285-364), FAMA-ACTL (306-414), MUTE_ACTLR133A_R134A, MUTE_ACTLE162A_E163A, MUTE_ACTLR133A_R134A_E162A_E163A were cloned into pGEX-4T-1 vector with an N-terminal GST tag and a thrombin cleavage sequence. For protein expression, the constructs were transformed into E. coli strain BL21. For each transformant, a single colony was selected and incubated in 10 ml LB liquid media. The overnight-incubated E. coli suspensions were transferred to 1 L LB medium and incubated at 37 °C for around 2 h until the OD600 reached 0.4–0.6. The isopropyl β-D-1-thiogalactopyranoside ([…] of final concentration) was added to the cultures and the strains were incubated at 22 °C for a further 18 h. GST-fused proteins were purified using glutathione agarose resin. The soluble portion of the cell lysate was loaded onto a GST-Sepharose column. Nonspecifically bound proteins were removed by washing the column with 20 mM Tris pH 8.0, 200 mM NaCl. The bound GST-fused protein was eluted with 10 mm glutathione and 20 mM Tris pH 8.0, 200 mM NaCl. The GST-fused proteins were exchanged with phosphate-buffered saline buffer, and then the solution was treated with 50 μg of thrombin for 10–12 h at 16 ^οC. The GST portion of the protein was cleaved during thrombin digestion, and then the whole solution was reloaded onto the glutathione S-transferase column to obtain pure protein. The purified proteins were further purified by gel filtration on a Superdex-200 (GE) column using fast protein liquid chromatography and phosphate buffer (pH 7.2) as the eluent. The purity of the protein was checked by SDS-PAGE. For detailed lists of oligo DNA and plasmid information, see Supplementary Tables 5, 6, respectively.
Binding of the small molecule Stomidazolone (3) to SCRM, MUTE, SPCH, FAMA, MUTEΔC, MUTE_ACTL, SCRM_ACTL, SPCH_ACTL and FAMA_ACTL, MUTER133A_R134A, MUTEE162A_E163A, MUTER133A_R134A_E162A_E163A, as well as SCRM binding to MUTE in the presence and absence of Stomidazolone (3) / AYSJ1059 (5) /AYSJ1061 (6) was characterized at 30 °C using a Malvern PEAQ-ITC microcalorimeter. All the protein samples were dialyzed overnight using PBS buffer containing 2% DMSO and 1 mM DTT. Stomidazolone was dissolved in PBS buffer containing 2% DMSO and 1 mM DTT. Titrations were performed by injecting 1 × 0.5-μL and 12 × 3-μL or 1 × 0.75-μL and 18 × 2-μL or 1 × 0.2-μL and 25 × 1.3-μL aliquots of 1 mM Stomidazolone / AYSJ1059 / AYSJ1061 to 5-30 μM of protein in PBS buffer pH 7.4, containing 2% DMSO and 1 mM DTT. All titrations were carried out at least twice. The raw data were corrected using buffer and protein controls and analyzed using the software supplied by the manufacturer. See Supplementary Table 3 for details.

[2] = Stability with acid or base in organic solvent; type: physicochemical; conditions: 1,2-dichloroethane, 40 °C, 3 h
Description: To examine the stability of Stomidazolone and identify any degraded products (if unstable), we treated Stomidazolone with an acid or a base. […] The major degraded product under basic conditions was isolated with gel-permeation chromatography (GPC) in 48% yield. The product, which we designated as lzx103 (compound 4), was identified as (phenylsulfonyl)benzimidamide[39] through ^1H and ^13C NMR analyses (Supplementary Fig. 3a, Supplementary Data 1). […]
show any biological activity on stomatal development (see Revised Fig. S3), thus ruling out the possibility that the inhibition of stomatal differentiation is attributable to the degradation product rather than Stomidzaolone itself. The yield of Izx103 was determined through isolation. Please see the schematics below (presented as Fig. S3). These new findings are described in detail in our Revised Results section (see Page 6 "Stability of […]
with CH COOH (3.1 equiv.) HN […]
with NaOH (3.1 equiv.) NH2 […]
The authors should also provide a better 13C NMR spectrum of the compound in the SI, the current copy features rather weak signal intensities and some signals can only be suspected.
We re-synthesized Stomidazolone and substituted with a better 13C NMR spectrum of Stomidazolone in our revised Document S1. Thank you.
Finally, it should be mentioned in the MS right from the beginning that the compound is a racemic mixture (see also point 2 for this).
We sincerely appreciate Reviewer 2 for raising an important point. Please see our […]
observed effects are caused by Stomidazolone-mediated modulation of MUTE function. The authors use SIM1 during the plant assays which is however not an optimal control as it is not […]
in the biochemical assays, while active compounds are in contrast active in both assay types.
An almost optimal control for these phenotypic and biochemical assays in my view are the two enantiomers of Stomidazolone. […]

SMILES | binding to MUTE analyzed by ITC (in words) [1] | stability under acidic conditions ([2]; 3 equiv. of acetic acid) | stability under basic conditions ([2]; 3 equiv. of sodium hydroxide) | recovered by 1H NMR analysis ([2]; CH3COOH (3.1 equiv.)) | driving force of binding to the ACTL domain (in words) ([1]; ITC data) | -T△S ([1]; ITC, MUTE_ACTL) | △G ([1]; ITC, MUTE_ACTL) | △H ([1]; ITC, MUTE_ACTL) | Kd ([1]; ITC, MUTE_ACTL, ND = no binding)
Cc1ccc(C2(NS(=O)(=O)c3ccccc3)N=C(c3ccccc3)C(=O)N2S(=O)(=O)c2ccccc2)cc1 (stereo not shown) [AYSJ1059] | no binding | – | – | – | – | – | – | – | –
O=C1C(c2ccccc2)=NC(NS(=O)(=O)c2ccccc2)(c2ccc(Br)cc2)N1S(=O)(=O)c1ccccc1 (stereo not shown) [AYSJ1061] | no binding | – | – | – | – | – | – | – | –
O=C1C(c2ccccc2)=NC(NS(=O)(=O)c2ccccc2)(c2ccccc2)N1S(=O)(=O)c1ccccc1 (stereo not shown) [Stomidazolone] | – | stable | completely degraded | 93% | primarily driven by enthalpic interactions | 14.4 ± 0.3 | -8.1 ± 0.2 | -22.5 ± 0.5 | 9.8 ± 1.3 µM
